Laboratory results as given in ChEMBL document CHEMBL1139446, “4,5-Disubstituted-1,3-oxazolidin-2-imine derivatives: a new class of orally bioavailable nitric oxide synthase inhibitor” (Bioorg Med Chem Lett, 2004).

Columns and labels:
[1] = biological target: T1, Nitric oxide synthase, inducible (Mus musculus, UniProt P29477); experiment: (§1) Inhibition of inducible nitric oxide synthase (iNOS) in mice
T1 sequence (P29477 whole entry): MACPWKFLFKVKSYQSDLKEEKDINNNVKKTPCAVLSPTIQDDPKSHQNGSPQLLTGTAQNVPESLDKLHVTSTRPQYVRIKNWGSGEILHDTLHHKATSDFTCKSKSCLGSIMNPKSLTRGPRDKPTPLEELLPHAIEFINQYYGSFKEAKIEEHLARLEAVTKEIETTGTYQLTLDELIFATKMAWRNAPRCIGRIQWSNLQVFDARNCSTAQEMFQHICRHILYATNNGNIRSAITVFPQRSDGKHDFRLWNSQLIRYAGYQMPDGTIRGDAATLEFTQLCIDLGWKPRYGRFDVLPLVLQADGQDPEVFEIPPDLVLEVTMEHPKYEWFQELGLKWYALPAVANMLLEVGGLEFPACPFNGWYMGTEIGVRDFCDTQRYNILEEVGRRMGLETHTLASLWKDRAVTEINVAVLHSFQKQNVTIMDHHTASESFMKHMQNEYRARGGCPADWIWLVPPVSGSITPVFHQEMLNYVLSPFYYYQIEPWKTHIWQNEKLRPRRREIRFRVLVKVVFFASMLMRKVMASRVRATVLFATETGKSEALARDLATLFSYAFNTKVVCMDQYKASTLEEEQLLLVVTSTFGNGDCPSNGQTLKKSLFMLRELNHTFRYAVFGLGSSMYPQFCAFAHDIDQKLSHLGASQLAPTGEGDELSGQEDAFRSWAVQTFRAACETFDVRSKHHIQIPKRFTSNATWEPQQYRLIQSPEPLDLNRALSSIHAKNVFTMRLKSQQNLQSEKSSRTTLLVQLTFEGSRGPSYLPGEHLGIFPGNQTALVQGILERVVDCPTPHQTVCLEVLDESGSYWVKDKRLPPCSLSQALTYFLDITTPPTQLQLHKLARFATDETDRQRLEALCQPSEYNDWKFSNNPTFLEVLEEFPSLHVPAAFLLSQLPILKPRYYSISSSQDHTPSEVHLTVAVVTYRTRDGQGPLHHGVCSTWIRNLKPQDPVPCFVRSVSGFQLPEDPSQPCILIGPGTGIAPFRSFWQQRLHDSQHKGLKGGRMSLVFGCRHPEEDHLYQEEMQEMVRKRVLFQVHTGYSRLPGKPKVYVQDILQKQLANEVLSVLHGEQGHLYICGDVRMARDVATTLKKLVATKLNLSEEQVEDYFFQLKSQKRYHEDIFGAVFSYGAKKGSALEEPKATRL

Nitric oxide synthase 1 = Nitric oxide synthase 1 (Mus musculus, UniProt Q9Z0J4); experiment: (§2) Inhibition of neuronal nitric oxide synthase (nNOS) in mice
Mus musculus = species on record: Mus musculus; experiment: Selectivity ratio of IC50 of nNOS to IC50 of iNOS
[2] = biological target: Nitric oxide synthase 1 (Mus musculus) (UniProt Q9Z0J4); experiment: as §2; conditions: concentration not given here
[3] = biological target: T2, Nitric oxide synthase, inducible (Mus musculus) (UniProt P29477); experiment: as §1; conditions: concentration not given here
T2 sequence (whole entry): T1 sequence (P29477 whole entry)

Nitric oxide synthase 1, sequence (Q9Z0J4 whole entry): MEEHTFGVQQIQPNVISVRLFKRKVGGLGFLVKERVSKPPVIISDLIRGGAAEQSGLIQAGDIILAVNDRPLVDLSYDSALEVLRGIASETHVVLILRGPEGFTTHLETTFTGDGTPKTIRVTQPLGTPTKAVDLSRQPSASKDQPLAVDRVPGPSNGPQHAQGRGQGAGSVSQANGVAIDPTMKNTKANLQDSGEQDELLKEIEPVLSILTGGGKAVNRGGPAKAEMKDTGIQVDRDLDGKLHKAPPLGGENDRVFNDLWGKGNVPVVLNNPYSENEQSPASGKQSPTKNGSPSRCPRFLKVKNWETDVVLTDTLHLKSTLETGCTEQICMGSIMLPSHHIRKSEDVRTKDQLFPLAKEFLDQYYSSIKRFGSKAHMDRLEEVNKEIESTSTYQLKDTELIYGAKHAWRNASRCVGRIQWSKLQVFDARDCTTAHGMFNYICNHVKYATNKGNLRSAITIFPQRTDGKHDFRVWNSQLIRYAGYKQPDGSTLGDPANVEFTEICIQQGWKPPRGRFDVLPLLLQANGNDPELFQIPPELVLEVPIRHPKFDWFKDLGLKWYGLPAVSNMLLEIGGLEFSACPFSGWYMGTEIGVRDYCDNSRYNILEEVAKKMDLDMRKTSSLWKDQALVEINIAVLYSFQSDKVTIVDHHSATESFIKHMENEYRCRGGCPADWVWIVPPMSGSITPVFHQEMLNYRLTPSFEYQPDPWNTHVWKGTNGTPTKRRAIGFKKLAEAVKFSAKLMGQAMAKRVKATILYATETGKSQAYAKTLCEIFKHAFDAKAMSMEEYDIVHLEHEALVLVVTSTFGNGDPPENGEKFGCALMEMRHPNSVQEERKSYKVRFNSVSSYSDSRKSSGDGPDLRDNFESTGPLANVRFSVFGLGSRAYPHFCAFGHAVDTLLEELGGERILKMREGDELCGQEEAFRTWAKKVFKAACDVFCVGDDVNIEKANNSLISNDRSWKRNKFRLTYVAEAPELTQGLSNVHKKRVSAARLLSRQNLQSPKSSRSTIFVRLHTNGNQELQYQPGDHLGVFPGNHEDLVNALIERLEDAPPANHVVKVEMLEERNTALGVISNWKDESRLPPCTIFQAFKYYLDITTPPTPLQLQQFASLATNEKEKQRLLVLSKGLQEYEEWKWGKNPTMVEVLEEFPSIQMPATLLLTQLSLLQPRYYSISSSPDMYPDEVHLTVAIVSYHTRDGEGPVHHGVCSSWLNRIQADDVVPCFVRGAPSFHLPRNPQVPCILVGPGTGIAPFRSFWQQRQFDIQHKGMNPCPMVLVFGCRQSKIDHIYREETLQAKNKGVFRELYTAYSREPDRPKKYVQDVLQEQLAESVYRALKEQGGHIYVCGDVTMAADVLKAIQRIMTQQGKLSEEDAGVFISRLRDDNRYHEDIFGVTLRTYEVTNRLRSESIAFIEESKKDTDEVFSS
Nitric oxide synthase 1 (Mus musculus), sequence (Q9Z0J4 whole entry): as above

Structure (SMILES)	IC50 [1] [nM]	IC50 (Nitric oxide synthase 1) [nM]	Selectivity (Mus musculus)	inhibition [2] [%]	inhibition [3] [%]
CCC[C@@H]1N=C(N)O[C@H]1C	120	570	4.8	–	–
NC1=NCC(CBr)O1 (stereo not given)	500	400	0.8	–	–
CC[C@@H]1N=C(N)O[C@H]1CC	56	2500	45	–	–
NC1=NC(c2ccccc2)CO1 (stereo not given)	–	–	–	18	28
CCC1COC(N)=N1 (stereo not given)	1600	2800	1.8	–	–
CNC(=N)NCCC[C@H](N)C(=O)O [TILARGININE]	–	4300	–	–	–
CC1COC(N)=N1 (stereo not given)	1500	9800	6.5	–	–
C[C@H]1CC(N)=N[C@@H]2[C@H](Cl)[C@@H]21	–	–	5	–	–
C[C@H]1CC(=N)N[C@@H]2[C@H](Cl)[C@@H]21	3	15	–	–	–
CC[C@@H]1N=C(N)O[C@@H]1C	120	680	5.7	–	–
CC[C@@H]1OC(N)=N[C@H]1C	120	1700	14	–	–
CCCCC[C@@H]1N=C(N)O[C@@H]1C	230	3600	16	–	–
CCC[C@@H]1N=C(N)O[C@@H]1C	41	920	22	–	–
CC[C@H]1OC(N)=N[C@H]1C	160	850	5.3	–	–
CC1CN=C(N)O1 (stereo not given)	74	1400	19	–	–
C[C@@H]1N=C(N)O[C@@H]1C	150	1600	11	–	–
CC[C@@H]1N=C(N)O[C@H]1C	170	2300	14	–	–
CC[C@@H]1N=C(N)O[C@@H]1CC	130	1200	–	–	–
CCC[C@@H]1N=C(N)O[C@H]1CCC	2500	73000	29	–	–
N=C(NCCC[C@H](N)C(=O)O)N[N+](=O)[O-] [NITROARGININE]	80000	500	0.0063	–	–
NC1=NCCO1	7900	34000	4.3	–	–
CCC[C@@H]1N=C(N)O[C@@H]1CCC	6800	57000	8.4	–	–
CCC1CN=C(N)O1 (stereo not given)	280	1800	6.4	–	–
CCCCC[C@@H]1N=C(N)O[C@H]1C	500	790	1.6	–	–
